Among the data in ChEMBL document CHEMBL5728323, “1,4,5-substituted 1,2,3-triazole analogues as antagonists of the pregnane X receptor” (2021) are IC50 values, retold here.

One may read the IC50 as the concentration needed to halve the response being measured.

Assay [1] in a line: Briefly, various concentrations (1-to-3 series dilutions for 10 concentration levels from 40 μM with 0.5% final DMSO concentration) of hPXR agonist rifampicin, various concentrations of tested chemicals alone or combined with 5 μM of rifampicin, were added to the wells of white 384-well tissue culture-treated plates with 5,000 cells in 25 μl of phenol red-free DMEM supplemented with 5% charcoal/dextran-treated FBS and incubated for 24 h at 37° C. before luciferase assay using Steadylite HTS (PerkinElmer Life Sciences). The following applies: HepG2. The class given is cell-based.

On to `COc1ccc(OC)c(-c2nc(C)c(C(=O)c3ccc(C(C)(C)C)cc3)n2C)c1`, for which the IC50 amounted to 0.79 µM. The IC50 in assay [1] turned out to be 3.1 µM.
